Source: patent US12077503B2, “Substituted cyclic amides and their use as herbicides” (FMC CORPORATION, priority 2015, dated 2024)

Experiments:
Format in all cases: in vivo
[1] = tested on: pigweed (Amaranthus retroflexus); test: Test A postemergence; details: Amaranthus retroflexus, post-emergence, 240 h, postemergence; for pest or weed control at 125 g/ha: 125 g ai/ha, visual injury vs untreated controls after approx. 10 d, 0 = no effect, 100 = complete control, read-out: Pigweed plant response rating (0 to 100 scale); for pest or weed control at 500 g/ha: 500 g ai/ha, 0 to 100 scale, 0 is no effect, 100 is complete control, read-out: Pigweed plant response rating
Summary of the method: (§1)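 Each rating is a visual injury score from 0 to 100 given about 10 d after treatment, judged against untreated controls kept alongside in the greenhouse. In loam soil–sand blend, seeds got a preemergence directed soil spray, while postemergence plants were 2 to 10 cm tall at spraying.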

[2] = tested on: corn (Zea mays); test: Test A postemergence; details: Zea mays, post-emergence, 240 h, postemergence; for plant injury at 125 g/ha: 125 g ai/ha, visual injury vs untreated controls after approx. 10 d, 0 = no effect, 100 = complete control, read-out: Corn plant response rating (0 to 100 scale); for plant injury at 500 g/ha: 500 g ai/ha, 0 to 100 scale, 0 is no effect, 100 is complete control, read-out: Corn plant response rating
Summary of the method: as §1

[3] = tested on: Kochia (Kochia scoparia); test: Test A postemergence; details: Bassia scoparia, post-emergence, 240 h, postemergence; for pest or weed control at 125 g/ha: 125 g ai/ha, visual injury vs untreated controls after approx. 10 d, 0 = no effect, 100 = complete control, read-out: Kochia plant response rating (0 to 100 scale); for pest or weed control at 500 g/ha: 500 g ai/ha, 0 to 100 scale, 0 is no effect, 100 is complete control, read-out: Kochia plant response rating
Summary of the method: as §1

[4] = tested on: blackgrass (Alopecurus myosuroides); test: Test A postemergence; details: Alopecurus myosuroides, post-emergence, 240 h, postemergence; for pest or weed control at 125 g/ha: 125 g ai/ha, visual injury vs untreated controls after approx. 10 d, 0 = no effect, 100 = complete control, read-out: Blackgrass plant response rating (0 to 100 scale); for pest or weed control at 500 g/ha: 500 g ai/ha, 0 to 100 scale, 0 is no effect, 100 is complete control, read-out: Blackgrass plant response rating
Summary of the method: as §1

[5] = tested on: barnyardgrass (Echinochloa crus-galli); test: Test A postemergence; details: Echinochloa crus-galli, post-emergence, 240 h, postemergence; for pest or weed control at 125 g/ha: 125 g ai/ha, visual injury vs untreated controls after approx. 10 d, 0 = no effect, 100 = complete control, read-out: Barnyardgrass plant response rating (0 to 100 scale); for pest or weed control at 500 g/ha: 500 g ai/ha, 0 to 100 scale, 0 is no effect, 100 is complete control, read-out: Barnyardgrass plant response rating
Summary of the method: as §1

[6] = tested on: ryegrass, Italian (Italian ryegrass, Lolium multiflorum); test: Test A postemergence; details: Lolium multiflorum, post-emergence, 240 h, postemergence; for pest or weed control at 125 g/ha: 125 g ai/ha, visual injury vs untreated controls after approx. 10 d, 0 = no effect, 100 = complete control, read-out: Ryegrass, Italian plant response rating (0 to 100 scale); for pest or weed control at 500 g/ha: 500 g ai/ha, 0 to 100 scale, 0 is no effect, 100 is complete control, read-out: Ryegrass, Italian plant response rating
Summary of the method: as §1

[7] = tested on: wheat (Triticum aestivum); test: Test A postemergence; details: Triticum aestivum, post-emergence, 240 h, postemergence; for plant injury at 125 g/ha: 125 g ai/ha, visual injury vs untreated controls after approx. 10 d, 0 = no effect, 100 = complete control, read-out: Wheat plant response rating (0 to 100 scale); for plant injury at 500 g/ha: 500 g ai/ha, 0 to 100 scale, 0 is no effect, 100 is complete control, read-out: Wheat plant response rating
Summary of the method: as §1

[8] = tested on: Galium (catchweed bedstraw, Galium aparine); test: Test A postemergence; details: Galium, post-emergence, 240 h, postemergence; for pest or weed control at 125 g/ha: 125 g ai/ha, visual injury vs untreated controls after approx. 10 d, 0 = no effect, 100 = complete control, read-out: Galium plant response rating (0 to 100 scale); for pest or weed control at 500 g/ha: 500 g ai/ha, 0 to 100 scale, 0 is no effect, 100 is complete control, read-out: Galium plant response rating
Summary of the method: as §1

[9] = tested on: giant foxtail (Setaria faberii); test: Test A postemergence; details: Setaria faberi, post-emergence, 240 h, postemergence; for pest or weed control at 125 g/ha: 125 g ai/ha, visual injury vs untreated controls after approx. 10 d, 0 = no effect, 100 = complete control, read-out: Foxtail, Giant plant response rating (0 to 100 scale); for pest or weed control at 500 g/ha: 500 g ai/ha, 0 to 100 scale, 0 is no effect, 100 is complete control, read-out: Foxtail, Giant plant response rating
Summary of the method: as §1

[10] = tested on: ragweed (common ragweed, Ambrosia elatior); test: Test A postemergence; details: Ambrosia artemisiifolia, post-emergence, 240 h, postemergence; for pest or weed control at 125 g/ha: 125 g ai/ha, visual injury vs untreated controls after approx. 10 d, 0 = no effect, 100 = complete control, read-out: Ragweed plant response rating (0 to 100 scale); for pest or weed control at 500 g/ha: 500 g ai/ha, 0 to 100 scale, 0 is no effect, 100 is complete control, read-out: Ragweed plant response rating
Summary of the method: as §1

[11] = tested on: pigweed (Amaranthus retroflexus); test: Test A preemergence; details: Amaranthus retroflexus, pre-emergence, 240 h, preemergence, 0 to 100 scale where 0 is no effect and 100 is complete control, read-out: Pigweed plant response rating; for pest or weed control at 125 g/ha: 125 g ai/ha, visual injury rating, approximately 10 d; for pest or weed control at 500 g/ha: 500 g ai/ha
[12] = tested on: Kochia (Kochia scoparia); test: Test A preemergence; details: Bassia scoparia, pre-emergence, 240 h, preemergence, 0 to 100 scale where 0 is no effect and 100 is complete control, read-out: Kochia plant response rating; for pest or weed control at 125 g/ha: 125 g ai/ha, visual injury rating, approximately 10 d; for pest or weed control at 500 g/ha: 500 g ai/ha
Summary of the method: as §1

[13] = tested on: barnyardgrass (Echinochloa crus-galli); test: Test A preemergence; details: Echinochloa crus-galli, pre-emergence, 240 h, preemergence, 0 to 100 scale where 0 is no effect and 100 is complete control, read-out: Barnyardgrass plant response rating; for pest or weed control at 125 g/ha: 125 g ai/ha, visual injury rating, approximately 10 d; for pest or weed control at 500 g/ha: 500 g ai/ha
Summary of the method: as §1

[14] = tested on: ryegrass, Italian (Italian ryegrass, Lolium multiflorum); test: Test A preemergence; details: Lolium multiflorum, pre-emergence, 240 h, preemergence, 0 to 100 scale where 0 is no effect and 100 is complete control, read-out: Ryegrass, Italian plant response rating; for pest or weed control at 125 g/ha: 125 g ai/ha, visual injury rating, approximately 10 d; for pest or weed control at 500 g/ha: 500 g ai/ha
Summary of the method: as §1

[15] = tested on: giant foxtail (Setaria faberii); test: Test A preemergence; details: Setaria faberi, pre-emergence, 240 h, preemergence, 0 to 100 scale where 0 is no effect and 100 is complete control, read-out: Foxtail, Giant plant response rating; for pest or weed control at 125 g/ha: 125 g ai/ha, visual injury rating, approximately 10 d; for pest or weed control at 500 g/ha: 500 g ai/ha
Summary of the method: as §1

[16] = tested on: ragweed (common ragweed, Ambrosia elatior); test: Test A preemergence; details: Ambrosia artemisiifolia, pre-emergence, 240 h, preemergence, 0 to 100 scale where 0 is no effect and 100 is complete control, read-out: Ragweed plant response rating; for pest or weed control at 125 g/ha: 125 g ai/ha, visual injury rating, approximately 10 d; for pest or weed control at 500 g/ha: 500 g ai/ha
Summary of the method: as §1

Compound	pest or weed control at 125 g/ha [1] [%]	pest or weed control at 500 g/ha [1] [%]	plant injury at 125 g/ha [2] [%]	plant injury at 500 g/ha [2] [%]	pest or weed control at 125 g/ha [3] [%]	pest or weed control at 500 g/ha [3] [%]	pest or weed control at 125 g/ha [4] [%]	pest or weed control at 500 g/ha [4] [%]	pest or weed control at 125 g/ha [5] [%]	pest or weed control at 500 g/ha [5] [%]	pest or weed control at 125 g/ha [6] [%]	pest or weed control at 500 g/ha [6] [%]	plant injury at 125 g/ha [7] [%]	plant injury at 500 g/ha [7] [%]	pest or weed control at 125 g/ha [8] [%]	pest or weed control at 500 g/ha [8] [%]	pest or weed control at 125 g/ha [9] [%]	pest or weed control at 500 g/ha [9] [%]	pest or weed control at 125 g/ha [10] [%]	pest or weed control at 500 g/ha [10] [%]	also measured
CN1CC[C@H](c2ccc(C(F)(F)F)cc2)[C@@H](C(=O)Nc2cccc(Cl)c2F)C1=O [Compound 1228]	20	50	20	70	60	60	0	40	90	90	0	30	0	30	20	60	80	80	0	0	pest or weed control at 125 g/ha [11]: 20%; pest or weed control at 500 g/ha [11]: 60%; pest or weed control at 125 g/ha [12]: 0%; pest or weed control at 500 g/ha [12]: 0%; pest or weed control at 125 g/ha [13]: 90%; pest or weed control at 500 g/ha [13]: 90%; pest or weed control at 125 g/ha [14]: 30%; pest or weed control at 500 g/ha [14]: 60%; pest or weed control at 125 g/ha [15]: 90%; pest or weed control at 500 g/ha [15]: 90%; pest or weed control at 125 g/ha [16]: 0%; pest or weed control at 500 g/ha [16]: 0%
CN1C[C@H](c2ccc(C#N)cc2)[C@@H](C(=O)Nc2ccc(F)c(F)c2F)C1=O [Compound 1229]	40	60	0	0	70	80	0	40	100	100	0	40	0	50	40	50	90	90	0	0	pest or weed control at 125 g/ha [11]: 60%; pest or weed control at 500 g/ha [11]: 90%; pest or weed control at 125 g/ha [12]: 90%; pest or weed control at 500 g/ha [12]: 90%; pest or weed control at 125 g/ha [13]: 90%; pest or weed control at 500 g/ha [13]: 100%; pest or weed control at 125 g/ha [14]: 0%; pest or weed control at 500 g/ha [14]: 40%; pest or weed control at 125 g/ha [15]: 100%; pest or weed control at 500 g/ha [15]: 100%; pest or weed control at 125 g/ha [16]: 60%; pest or weed control at 500 g/ha [16]: 70%
CSc1ccccc1NC(=O)[C@H]1C(=O)N(C)C[C@@H]1c1ccc(C#N)cc1 [Compound 1230]	30	60	0	0	30	70	0	0	30	70	0	0	0	0	20	60	60	80	0	0	pest or weed control at 125 g/ha [11]: 20%; pest or weed control at 500 g/ha [11]: 30%; pest or weed control at 125 g/ha [12]: 70%; pest or weed control at 500 g/ha [12]: 90%; pest or weed control at 125 g/ha [13]: 0%; pest or weed control at 500 g/ha [13]: 50%; pest or weed control at 125 g/ha [14]: 0%; pest or weed control at 500 g/ha [14]: 0%; pest or weed control at 125 g/ha [15]: 40%; pest or weed control at 500 g/ha [15]: 90%; pest or weed control at 125 g/ha [16]: 0%; pest or weed control at 500 g/ha [16]: 0%
